{"source": "patent US9133129B2", "about": "“Bicyclic compound” (TAKEDA PHARMACEUTICAL COMPANY LIMITED, priority 2011, dated 2015)", "key": {"human ACC2": {"target": "T1, human ACC2 (Homo sapiens, UniProt O00763)", "T1 construct": "made in house; host or cells: SF-9 insect cells, recombinant baculovirus BAC-ACC2 (Nd)", "T1 sequence (O00763 117-2458 limits assumed)": "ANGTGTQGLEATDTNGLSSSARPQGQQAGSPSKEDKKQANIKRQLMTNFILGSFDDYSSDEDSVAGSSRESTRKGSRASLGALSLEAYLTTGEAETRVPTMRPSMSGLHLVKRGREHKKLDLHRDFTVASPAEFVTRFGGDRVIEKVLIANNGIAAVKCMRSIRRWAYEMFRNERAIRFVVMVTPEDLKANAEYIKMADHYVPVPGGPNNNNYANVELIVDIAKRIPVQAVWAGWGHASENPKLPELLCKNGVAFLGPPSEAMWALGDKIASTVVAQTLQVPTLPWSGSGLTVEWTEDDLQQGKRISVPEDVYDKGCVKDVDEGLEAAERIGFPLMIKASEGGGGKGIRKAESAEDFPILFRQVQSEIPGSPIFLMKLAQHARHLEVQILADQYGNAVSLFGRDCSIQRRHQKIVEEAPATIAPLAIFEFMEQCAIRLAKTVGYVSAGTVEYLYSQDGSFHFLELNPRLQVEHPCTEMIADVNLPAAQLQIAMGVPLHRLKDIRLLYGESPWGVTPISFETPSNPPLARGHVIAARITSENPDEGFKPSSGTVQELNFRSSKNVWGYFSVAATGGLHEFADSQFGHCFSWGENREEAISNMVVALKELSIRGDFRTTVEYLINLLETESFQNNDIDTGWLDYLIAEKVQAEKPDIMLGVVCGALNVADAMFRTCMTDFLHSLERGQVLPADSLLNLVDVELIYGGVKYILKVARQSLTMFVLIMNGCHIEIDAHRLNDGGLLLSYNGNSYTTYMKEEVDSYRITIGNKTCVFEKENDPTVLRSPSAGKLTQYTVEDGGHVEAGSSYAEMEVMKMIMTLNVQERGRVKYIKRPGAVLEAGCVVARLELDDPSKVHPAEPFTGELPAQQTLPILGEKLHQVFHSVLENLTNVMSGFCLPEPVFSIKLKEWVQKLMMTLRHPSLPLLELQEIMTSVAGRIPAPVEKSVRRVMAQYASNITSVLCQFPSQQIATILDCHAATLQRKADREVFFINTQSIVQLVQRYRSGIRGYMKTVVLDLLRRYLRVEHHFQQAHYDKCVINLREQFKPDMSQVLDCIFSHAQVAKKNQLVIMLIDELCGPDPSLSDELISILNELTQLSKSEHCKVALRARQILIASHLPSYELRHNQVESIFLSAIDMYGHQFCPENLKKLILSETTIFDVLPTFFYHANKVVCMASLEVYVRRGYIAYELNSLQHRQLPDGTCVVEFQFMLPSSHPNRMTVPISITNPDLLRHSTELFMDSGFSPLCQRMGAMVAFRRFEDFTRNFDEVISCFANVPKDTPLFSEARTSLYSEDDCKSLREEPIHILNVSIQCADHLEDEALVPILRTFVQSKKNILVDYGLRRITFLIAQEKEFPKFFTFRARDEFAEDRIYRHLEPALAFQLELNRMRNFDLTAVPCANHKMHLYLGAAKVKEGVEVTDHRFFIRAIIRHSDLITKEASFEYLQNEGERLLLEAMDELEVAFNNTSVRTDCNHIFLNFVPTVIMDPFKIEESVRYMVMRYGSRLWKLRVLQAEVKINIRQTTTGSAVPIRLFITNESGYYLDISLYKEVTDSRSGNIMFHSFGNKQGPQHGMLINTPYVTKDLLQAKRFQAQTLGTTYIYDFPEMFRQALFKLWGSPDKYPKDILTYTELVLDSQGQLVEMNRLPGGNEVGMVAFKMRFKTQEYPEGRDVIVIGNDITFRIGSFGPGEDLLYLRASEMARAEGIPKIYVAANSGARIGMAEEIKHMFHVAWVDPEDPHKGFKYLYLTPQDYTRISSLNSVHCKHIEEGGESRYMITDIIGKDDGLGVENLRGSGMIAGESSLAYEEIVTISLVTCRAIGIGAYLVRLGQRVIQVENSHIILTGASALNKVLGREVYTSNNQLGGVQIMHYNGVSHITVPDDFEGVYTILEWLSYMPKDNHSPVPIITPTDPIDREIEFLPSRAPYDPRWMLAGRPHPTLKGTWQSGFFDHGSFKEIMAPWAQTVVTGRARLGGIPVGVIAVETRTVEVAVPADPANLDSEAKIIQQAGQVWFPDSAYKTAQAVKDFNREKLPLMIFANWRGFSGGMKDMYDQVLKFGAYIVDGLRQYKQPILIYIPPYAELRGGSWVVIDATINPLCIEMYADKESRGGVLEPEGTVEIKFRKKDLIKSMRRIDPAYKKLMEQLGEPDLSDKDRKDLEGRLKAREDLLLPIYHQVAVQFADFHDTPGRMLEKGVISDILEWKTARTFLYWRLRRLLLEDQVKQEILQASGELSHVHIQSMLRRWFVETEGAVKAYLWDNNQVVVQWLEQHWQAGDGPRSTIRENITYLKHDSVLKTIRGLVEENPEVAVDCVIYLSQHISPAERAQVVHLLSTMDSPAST", "test": "ACC2 inhibitory activity, malachite green assay with recombinant ACC2 (Nd)", "type": "biochemical", "settings": "for inhibition at 1 µM: 1 μM of the test compound, read-out: ACC2 inhibitory rates (%) at 1 μM", "experimental": "The ACC2 inhibitory action of the compound of the present invention was evaluated by the following method.\n(1) Cloning of Human ACC2 Gene and Preparation of Recombinant Baculovirus\nHuman ACC2 gene was cloned by PCR using a human skeletal muscle cDNA library (Clontech) as a template and Primer 1 and Primer 2 shown below. Primer 1 and Primer 2 were prepared by adding SalI, XbaI restriction enzyme recognition sequences based on the information of the base sequence of human ACC2 gene (Genbank Accession U89344).\n(§1) PCR was performed using Pyrobest DNA polymerase (TAKARA BIO INC.). The obtained PCR product was cloned to pT7 Blue vector (Novagen) and after confirmation of the base sequence, digested with restriction enzymes SalI and XbaI. The obtained DNA fragment was inserted into pFAST-BacHTa (Invitrogen) digested with restriction enzymes SalI and XbaI to give expression plasmid ACC2/pFAST-BacHTa.\nA plasmid for expression of ACC2 without a mitochondrial targeting sequence was prepared by PCR using the expression plasmid as a template, and Primer 3 (SalI restriction enzyme recognition sequence was added) and Primer 4, which are prepared by reference to the information of human ACC2 gene base sequence (Genbank Accession U89344).\nas §1, with “Pyrobest-DNA” for “Pyrobest DNA”, “AflII.” for “XbaI.”, “ACC2/pFAST-BacHTa” for “pFAST-BacHTa (Invitrogen)”, “AflII” for “XbaI”, “ACC2mito7/pFAST-BacHTa.” for “ACC2/pFAST-BacHTa.”\nUsing the expression plasmid ACC2mito7/pFAST-BacHTa and BAC-TO-BAC Baculovirus Expression System (Invitrogen), virus stock BAC-ACC2 of recombinant Baculovirus (N terminal deleted (hereinafter Nd)) was prepared.\n(2) Preparation of ACC2 (Nd) Protein\nSF-9 cells (Invitrogen) were inoculated to a medium (10 L) for insect cells (Sf-900IISFM medium (Invitrogen) containing 5% fetal bovine serum (Trace), 50 mg/L Gentamicin (Wako), 0.1% Pluronic F-68 (Invitrogen)) at 1.0×10^6 cells/mL, and cultured with shaking in Wave Bioreactor (GE Health Care) at 27° C., 20 rpm, rocking angle 10°, oxygen concentration 30%.\nOn day 2 of the culture, recombinant Baculovirus BAC-ACC2 (Nd) was added, and the cells were cultured for 3 days. The culture medium was centrifuged at 1000×g for 10 min to give virus-infected cells. The cells were washed with phosphate buffered saline (Invitrogen) and centrifuged under the same conditions. The obtained cells were cryopreserved at −80° C.\nThe cryopreserved cells were thawed in ice and suspended in 900 mL of 25 mM HEPES buffer (pH 7.5) containing 10% Glycerol, 0.3 M NaCl, 1 mM EDTA, 25 mM Sodium β-Glycerophosphate and 1 mM Sodium Orthovanadate, and supplemented with Complete Protease Inhibitor (Roche). The obtained suspension was homogenized three times in a polytron homogenizer (Kinematica) at 20,000 rpm for 30 sec. The obtained cell disruption solution was clarified by centrifugation at 186000×g for 60 min. To the supernatant was added 5 mL of AF-chelate 650M Ni chelated carrier (TOSOH), and the mixture was rotated at 4° C. for 1 hr, and centrifuged at 1000×g for 5 min, and the carrier was transferred to opened column. The column was washed with 50 mL of buffer A (50 mM HEPES (pH 7.5) containing 0.3 M NaCl), further washed with buffer A containing 20 mM Imidazole, and eluted with buffer A containing 250 mM Imidazole. The eluate was concentrated with Amicon Ultra 15 (Millipore) with a molecular weight cut off of 50K. The obtained concentrate was filtered using gelfiltration column (HiLoad 26/60 Superdex200 prep grade) (GE Health Care) with 50 mM HEPES buffer (pH 7.5) containing 10 mM MgCl2, 2 mM Dithiothreitol, 10 mM Tripotassium Citrate and 0.3 M NaCl to give ACC2 (Nd). The obtained ACC2 (Nd) was cryopreserved at −80° C.\n(3) Measurement of ACC2 Inhibitory Activity […]"}}, "data": [{"smiles": "CC(=O)N[C@@H](C)COc1cc2oc(-c3ccc(OC[C@H]4CC4(F)F)cc3)nc2cn1", "note": "[Example 68, N-((2S)-1-((2-(4-(((1R)-2,2-difluorocyclopropyl)methoxy)phenyl) [1,3]oxazolo[4,5-c]pyridin-6-yl)oxy)propan-2-yl)acetamide]", "values": [{"measurement": "melting point", "value": "204.6 to 204.7", "unit": "°C"}, {"measurement": "inhibition at 1 µM", "setting": "human ACC2", "value": 98, "unit": "%"}]}, {"smiles": "CC(=O)N[C@@H](C)COc1cc2oc(-c3cc(F)c(OCC4CC4)cn3)nc2cn1", "note": "[Example 65, N-((2S)-1-((2-(5-(cyclopropylmethoxy)-4-fluoropyridin-2-yl)[1,3]oxazolo[4,5-c]pyridin-6-yl)oxy)propan-2-yl)acetamide]", "values": [{"measurement": "melting point", "value": "183.3 to 183.4", "unit": "°C"}, {"measurement": "inhibition at 1 µM", "setting": "human ACC2", "value": 95, "unit": "%"}]}, {"smiles": "CC(=O)N[C@@H](C)COc1ccc2nc(-c3ccc(OCC4CC4)c(F)c3)oc2c1F", "note": "[Example 37, N-((2S)-1-((2-(4-(cyclopropylmethoxy)-3-fluorophenyl)-7-fluoro-1,3-benzoxazol-6-yl)oxy)propan-2-yl)acetamide]", "values": [{"measurement": "melting point", "value": "163 to 164", "unit": "°C"}, {"measurement": "inhibition at 10 µM", "setting": "human ACC2; 10 μM of the test compound, read-out: ACC2 inhibitory rates (%) at 10 μM", "value": 90, "unit": "%"}]}]}
